Data reported in US20250205191A1, “R(-)-MDMA COMPOSITIONS AND METHODS OF TREATMENT” (EmpathBio, Inc., priority 2023, published 2025).

Assays:
human 5-HT2A receptor = biological target: T1, human 5-HT2A receptor (Homo sapiens, UniProt P28223); test: 5-HT2A agonism, inositol monophosphate accumulation (HTRF), CHO-K1 recombinant cells; format: cell-based; conditions: 5-HT2A
T1 construct: expressed in transfected cells; host or cells: CHO-K1

human 5-HT2B receptor = biological target: T2, human 5-HT2B receptor (Homo sapiens, UniProt P41595); test: 5-HT2B agonism, inositol monophosphate accumulation (HTRF), CHO-K1 recombinant cells; format: cell-based; conditions: 5-HT2B
T2 construct: expressed in transfected cells; host or cells: CHO-K1
T2 sequence (P41595 whole entry): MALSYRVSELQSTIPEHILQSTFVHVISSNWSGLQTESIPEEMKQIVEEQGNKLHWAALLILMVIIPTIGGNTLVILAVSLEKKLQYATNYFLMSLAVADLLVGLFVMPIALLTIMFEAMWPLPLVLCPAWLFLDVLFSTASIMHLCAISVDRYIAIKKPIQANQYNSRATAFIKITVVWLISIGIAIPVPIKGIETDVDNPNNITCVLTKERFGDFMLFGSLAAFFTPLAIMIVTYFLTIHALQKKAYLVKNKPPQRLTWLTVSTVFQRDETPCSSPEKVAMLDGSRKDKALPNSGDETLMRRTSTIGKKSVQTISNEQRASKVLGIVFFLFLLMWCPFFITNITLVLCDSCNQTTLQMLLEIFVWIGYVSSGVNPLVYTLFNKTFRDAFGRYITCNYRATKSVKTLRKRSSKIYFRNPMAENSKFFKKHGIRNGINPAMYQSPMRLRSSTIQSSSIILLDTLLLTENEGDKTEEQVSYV

[1] = biological target: T3, human 5-HT2C (non-edited) receptor (Homo sapiens, UniProt P28335); test: 5-HT2C (non-edited) agonism, inositol monophosphate accumulation (HTRF), CHO-K1 recombinant cells; format: cell-based; conditions: 5-HT2C (non-edited); relative to α-Me-5-HT at its EC100
T3 construct: expressed in transfected cells; host or cells: CHO-K1
T3 sequence (P28335 33-458): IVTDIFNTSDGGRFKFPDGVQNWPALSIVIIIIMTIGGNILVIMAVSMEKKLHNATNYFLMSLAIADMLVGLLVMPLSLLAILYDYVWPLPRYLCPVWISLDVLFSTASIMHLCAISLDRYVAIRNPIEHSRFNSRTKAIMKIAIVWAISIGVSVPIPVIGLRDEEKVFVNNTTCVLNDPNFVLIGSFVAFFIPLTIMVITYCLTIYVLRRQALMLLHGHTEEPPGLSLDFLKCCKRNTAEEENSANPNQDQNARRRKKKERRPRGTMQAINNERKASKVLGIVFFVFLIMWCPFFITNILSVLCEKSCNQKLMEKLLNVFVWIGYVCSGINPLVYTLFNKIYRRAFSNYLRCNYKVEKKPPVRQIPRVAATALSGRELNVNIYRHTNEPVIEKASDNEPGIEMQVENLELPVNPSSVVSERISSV

[2] = biological target: T4, human 5-HT2C (edited) receptor (Homo sapiens, UniProt P28335); test: 5-HT2C (edited) agonism, inositol monophosphate accumulation (HTRF), CHO-K1 recombinant cells; format: cell-based; conditions: 5-HT2C (edited); relative to α-Me-5-HT at its EC100
T4 sequence (P28335 33-458): T3 sequence (P28335 33-458)

male C57BL/6J mice = test: Mouse extinction of fear learning assay; format: in vivo; conditions: 7.8 mg/kg IP once, vs vehicle
Procedure: Extinction of fear learning in rodents is a useful assay to understand if compounds have the potential to enhance learning processes that may be involved in recovery from SAD and other stress and anxiety related disorders, due to its resemblance to exposure-based therapy in humans. […] Freezing behavior, an indicator of the fear response, was measured in the presence of the CS during the extinction training session (Day 1) and the day after (Day 2, Extinction Testing, in the absence of test article). Locomotor activity was measured during the initial 2-minute habituation period, prior to the presentation of the CS, on Days 1 and 2.

healthy volunteers [3] = conditions: racemic MDMA at 125 mg, comparison in FIG. 11; cited from earlier work
healthy volunteers [4] = conditions: published report (Hysek et al., 2014); cited from earlier work
[5] = tested on: rat embryonic cortical neurons; test: In vitro rat cortical neurite outgrowth; format: cell-based; conditions: 250 nM positive control, vs vehicle
Procedure: The experiment included a 0.1% sterile water vehicle negative control condition and a 250 nM donepezil positive control condition, and the number of neurites per neuron, total neurite length per neuron and branchpoints per neuron from n=12 wells per treatment were compared to the vehicle control condition.

[6] = Phase 1 clinical study, urine pharmacokinetics (urinalysis); format: in vivo, human
[7] = Phase 1 clinical study, plasma pharmacokinetics; conditions: for AUC0-t / Cmax / t1/2: mean (SD); for Tmax: median (minimum, maximum)
[8] = relative to α-Me-5-HT at its EC100
[9] = urine analyte after EMP-01 125 mg, Day 9
[10] = urine analyte after single oral 75 mg R(−)-MDMA, Day 1
[11] = urine analyte after single oral 125 mg R(−)-MDMA, Day 1
[12] = urine analyte after single oral 175 mg R(−)-MDMA, Day 1
[13] = urine analyte after single oral 225 mg R(−)-MDMA, Day 1
[14] = plasma analyte after oral 125 mg R(−)-MDMA, Day 9
[15] = plasma analyte after single oral 75 mg R(−)-MDMA, Day 1
[16] = plasma analyte after single oral 125 mg R(−)-MDMA, Day 1
[17] = plasma analyte after single oral 175 mg R(−)-MDMA, Day 1
[18] = plasma analyte after single oral 225 mg R(−)-MDMA, Day 1

T1 sequence (P28223 whole entry): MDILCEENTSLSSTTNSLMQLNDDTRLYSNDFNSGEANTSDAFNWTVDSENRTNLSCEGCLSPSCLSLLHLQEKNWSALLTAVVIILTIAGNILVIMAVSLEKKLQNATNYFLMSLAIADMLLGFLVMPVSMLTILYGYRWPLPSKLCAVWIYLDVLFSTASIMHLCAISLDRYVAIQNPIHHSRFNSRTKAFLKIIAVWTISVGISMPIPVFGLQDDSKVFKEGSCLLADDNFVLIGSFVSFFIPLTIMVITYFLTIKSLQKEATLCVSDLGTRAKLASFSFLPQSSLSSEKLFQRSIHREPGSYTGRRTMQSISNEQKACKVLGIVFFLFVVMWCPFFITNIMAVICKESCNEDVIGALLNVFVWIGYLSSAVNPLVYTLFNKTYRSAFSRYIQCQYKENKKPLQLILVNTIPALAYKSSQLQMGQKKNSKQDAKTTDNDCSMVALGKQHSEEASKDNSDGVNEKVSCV

## CNC(C)Cc1ccc2c(c1)OCO2 (racemic) [Racemic MDMA, 3,4-methylenedioxymethamphetamine, reference compound]
Human 5-HT2A receptor; CHO-K1, IP accumulation
  EC50: 4730 nM
Human 5-HT2A receptor; [8]
  Efficacy (% of a-Me-5-HT response): 68.4%
Human 5-HT2B receptor; CHO-K1, IP accumulation
  EC50: 194 nM
Human 5-HT2B receptor; [8]
  Efficacy (% of a-Me-5-HT response): 91.2%
[1]
  Efficacy (% of a-Me-5-HT response): 95.3%
[2]
  Efficacy (% of a-Me-5-HT response): 97.7%
Male C57BL/6J mice; 30 min prior to extinction training
  freezing behavior: significantly reduced freezing behavior on Days 1 and 2
Male C57BL/6J mice
  locomotor activity: increased locomotor activity on Days 1 and 2
Healthy volunteers [3]
  11D-ASC response profile: no visual hallucinations and little to no insight
Healthy volunteers [4]
  reduction of bias to angry faces: 12.5%

## COc1cc2c(cc1OC)C(=O)C(CC1CCN(Cc3ccccc3)CC1)C2 (stereo not shown) [Donepezil, reference compound]
[5]
  branchpoints per neuron: significantly and robustly increased
  number of neurites per neuron: significantly and robustly increased
  total neurite length per neuron: significantly and robustly increased

## C[C@@H](N)Cc1ccc2c(c1)OCO2 [R-MDA]
[6]; [9]
  Ae12-24, amount excreted at the 12-24 hour collection interval: 0.9794 (0.8552) mg
  CAe, cumulative amount of drug excreted: 0.9794 (0.8552) mg
  CFe, cumulative fraction of drug excreted: 1.2746 (0.7265) %
  CLr, renal clearance rate: 5.3793 (1.5400) L/h
  Fe12-24, fraction of drug excreted at the 12-24 hour collection interval: 0.7835 (0.6842) %
[6]; [10]
  Ae12-24, amount excreted at the 12-24 hour collection interval: 0.4622 (0.1101) mg
  CAe, cumulative amount of drug excreted: 0.8510 (0.2149) mg
  CFe, cumulative fraction of drug excreted: 1.1347 (0.2865) %
  CLr, renal clearance rate: 4.6787 (0.8471) L/h
  Fe12-24, fraction of drug excreted at the 12-24 hour collection interval: 0.6163 (0.1468) %
[6]; [11]
  Ae12-24, amount excreted at the 12-24 hour collection interval: 0.7850 (0.4299) mg
  CAe, cumulative amount of drug excreted: 1.1628 (0.4509) mg
  CFe, cumulative fraction of drug excreted: 0.9302 (0.3608) %
  CLr, renal clearance rate: 3.7173 (0.9547) L/h
  Fe12-24, fraction of drug excreted at the 12-24 hour collection interval: 0.6280 (0.3440) %
[6]; [12]
  Ae12-24, amount excreted at the 12-24 hour collection interval: 0.7076 (0.4510) mg
  CAe, cumulative amount of drug excreted: 1.4788 (0.8740) mg
  CFe, cumulative fraction of drug excreted: 0.8450 (0.4995) %
  CLr, renal clearance rate: 4.3945 (2.1019) L/h
  Fe12-24, fraction of drug excreted at the 12-24 hour collection interval: 0.4043 (0.2577) %
[6]; [13]
  Ae12-24, amount excreted at the 12-24 hour collection interval: 0.8450 (0.4995) mg
  CAe, cumulative amount of drug excreted: 1.9805 (0.8173) mg
  CFe, cumulative fraction of drug excreted: 0.5432 (0.2708) %
  CLr, renal clearance rate: 5.1337 (2.2871) L/h
  Fe12-24, fraction of drug excreted at the 12-24 hour collection interval: 0.8802 (0.3633) %
[7]; metabolite after oral R(−)-MDMA
  time of peak of mean plasma concentration: approximately 12 hours postdose
[7]; [14]
  AUC0-t: 291.6730 (112.2988) h · ng/mL
  Cmax: 13.3733 (2.3199) ng/mL
  t1/2: 143.1218 (145.7332) hr
  Tmax: 12.042 (12.00, 30.00) hr
[7]; [15]
  AUC0-t: 183.2765 (40.5712) h · ng/mL
  Cmax: 7.6733 (1.6139) ng/mL
  t1/2: 39.0473 (19.0557) hr
  Tmax: 12.000 (10.00, 12.00) hr
[7]; [16]
  AUC0-t: 307.4702 (66.2889) h · ng/mL
  Cmax: 12.7950 (3.1122) ng/mL
  Tmax: 12.025 (12.00, 30.03) hr
[7]; [17]
  AUC0-t: 272.6761 (57.5614) h · ng/mL
  Cmax: 11.2820 (2.1914) ng/mL
  Tmax: 18.000 (12.00, 18.00) hr
[7]; [18]
  AUC0-t: 413.2388 (193.5541) h · ng/mL
  Tmax: 21.050 (18.00, 30.00) hr
